Test: Light-fastness of ink jet prints on Xerox Acid paper faded in a weatherometer (colour difference ΔE)
Assay type: physicochemical
Protocol: Each ink was prepared by dissolving the Dye shown in the second column of Table 1 (0.35 g) in water (8.45 g) by adding ammonia and adjusting the pH to 9.5. 2-pyrrolidone (0.5 g), thiodiglycol (0.5 g) and Surfynol 465 (0.2 g) were then added and the mixture was stirred at ambient temperature. The resulting solution was filtered through a 0.45 μm filter to give the ink.
Each ink shown in Table 1 was loaded into a HP 560 ink jet printer and was applied to Xerox Acid paper using the ink jet printer. When the resulting prints had dried a portion of the print was mounted, half covered, and faded in an Atlas Ci35a weatherometer.
The light-fastness of the prints was assessed by measuring the colour difference (ΔE) between the faded and unfaded portions of the print using an X-Rite 939 spectrodensitometer. The time shown in the column marked ΔE in Table 1 refers to the number of hours the print was faded for in the weatherometer.
A low ΔE value indicates a small colour change after fading in the weatherometer and therefore a high light-fastness.
The light-fastness of Dyes (A) and (B) and the individual sodium and lithium salts thereof were measured as described in Example 1; namely by ink jet printing an ink containing the each dye onto Xerox Acid paper and fading the prints using an Xrite Weatherometer.

ΔE (50 hours) (ink with 3.5 parts dye printed on Xerox Acid paper, faded 50 hours in Atlas Ci35a weatherometer, low ΔE = high light-fastness): 10.77 | Light-Fastness (after 50 hours) (measured as in Example 1 (ΔE), ink jet print on Xerox Acid paper, 50 hours of fading): 11
SMILES: COc1cc(N=Nc2cccc(S(=O)(=O)O)c2)ccc1NC(=O)Nc1ccc(N=Nc2cccc(S(=O)(=O)O)c2)cc1OC [Comparative (3), C.I. Direct Yellow 132]

From patent US6395885B1, “Use of lithium salts of anionic dyes to enhance their light-fastness” (Avecia Limited, priority 1998, dated 2002)
